# In the OligoGym collection:
# Where “and” joins values, the source holds several entries; their conditions need not be identical. Equal entries are not always repeated. After the bases stand the sugars from the 5' end (letter, count) and the backbone: PS all phosphorothioate, else s phosphorothioate and o phosphodiester by linkage. Methylation of C is not given here. e = 2'-O-(2-methoxyethyl) (MOE); k = constrained ethyl (cEt); d = 2'-deoxy (DNA)
# Biological target: IRF4
# Details: ASO
Sequence,"target mRNA inhibition (SK-MEL-28, 4 µM)","target mRNA inhibition (MM.1R, 1 µM)",other results
"GCCTTGAAGAGCGCGG (sugars k3 d10 k3, PS)",9%,–,–
"TTGATGTGATAGCTGA (sugars kkdddddddddekeke, PS)",–,28%,–
"CAGTGATGTCAGGTTT (sugars kkdddddddddekeke, PS)",–,47%,–
"TTGAATAGAGGAATGG (sugars k3 d10 k3, PS)",42%,–,–
"AGGAACTAGTCGACAG (sugars k3 d10 k3, PS)",40%,–,–
"ACAGAGGTGGGAGTAC (sugars k3 d10 k3, PS)",-74%,–,–
"CAGGAGAGCCCCTACC (sugars k3 d10 k3, PS)",–,-8%,–
"GACTTAGAGGACAGTG (sugars k3 d10 k3, PS)",48%,–,–
"AATCACTGGAGAGAAC (sugars k3 d10 k3, PS)",29%,–,–
"GGAAGTTTACACTGGA (sugars kkkdddddddddkeke, PS)",–,78%,"target mRNA inhibition (MM.1R, 0.074 µM): 22%; target mRNA inhibition (MM.1R, 0.222 µM): 46%; target mRNA inhibition (MM.1R, 0.666 µM): 74%; target mRNA inhibition (MM.1R, 2 µM): 91%"
"TGTGCTTGCCAAGCCT (sugars kdddddddddkekeke, PS)",–,-3% and 16%,–
"AGGAATGAGCACTCTT (sugars k3 d10 k3, PS)",–,7%,–
"AACTGCAGCACCGTGG (sugars k3 d10 k3, PS)",45%,–,–
"AATAAGATCCCACGAA (sugars k3 d10 k3, PS)",15%,–,–
"AACAATACTGTAAGGG (sugars k3 d10 k3, PS)",51%,–,–
"CGTAAACTGAAAGACC (sugars k3 d10 k3, PS)",48%,–,–
"TTAGCCAATTCCTCCA (sugars k3 d10 k3, PS)",–,36% and 47%,–
"CACAAGTGGCCTTCCT (sugars k3 d10 k3, PS)",45%,–,–
"CGACAAGTGGCGCAGA (sugars k3 d10 k3, PS)",–,2%,–
"GAGTGCAGGAGAGGCT (sugars k3 d10 k3, PS)",31%,–,–
"AACCGCTGAACTGAAA (sugars k3 d10 k3, PS)",13%,–,–
"GATTAATTCTCCTATG (sugars k3 d10 k3, PS)",–,-19%,–
"GTGCAAGCCTCATTCA (sugars k3 d10 k3, PS)",–,19%,–
"ACCGAACACACCAGGT (sugars k3 d10 k3, PS)",–,-14%,–
"TTACCATTTTCACAAG (sugars k4 d8 k4, PS)",7%,–,–

Sequence,"target mRNA inhibition (SK-MEL-28, 4 µM)","target mRNA inhibition (MM.1R, 1 µM)",other results
"CTGGCATTGAGACGGG (sugars k3 d10 k3, PS)",61%,–,–
"CTTTTACCCACCAAAG (sugars k3 d10 k3, PS)",18%,–,–
"CAGTGACTTGCATCCA (sugars k3 d10 k3, PS)",–,53% and 38%,"target mRNA inhibition (MM.1R, 0.0625 µM): 40% and 20%; target mRNA inhibition (MM.1R, 0.25 µM): 43% and 24%; target mRNA inhibition (MM.1R, 4 µM): 75% and 61%"
"GATAGGAAGCACTGGC (sugars k3 d10 k3, PS)",62%,–,–
"GGAAGTTTACACTGGA (sugars kkdddddddddkekek, PS)",–,47%,–
"ATGCATAGTGATGAGA (sugars k3 d10 k3, PS)",45%,–,–
"CATCACCGAACACACC (sugars k3 d10 k3, PS)",24%,–,–
"TTCCAACCTTTATGAT (sugars k3 d10 k3, PS)",7%,–,–
"TCAAACACTAATACCT (sugars k3 d10 k3, PS)",25%,–,–
"CGAAACACAGTCTGCT (sugars k3 d10 k3, PS)",53%,–,–
"ATACAAAACGGACTGG (sugars k3 d10 k3, PS)",15%,–,–
"ATCTGATCCGGACTCT (sugars k3 d10 k3, PS)",9%,–,–
"AAGAATGGCGCATAGG (sugars k3 d10 k3, PS)",81%,28% and 42%,"target mRNA inhibition (MM.1R, 0.0625 µM): -1% and 19%; target mRNA inhibition (MM.1R, 0.25 µM): 12% and 27%; target mRNA inhibition (MM.1R, 4 µM): 55% and 66%"
"GGTCAGAATCTTGAAA (sugars k3 d10 k3, PS)",9%,–,–
"TAAAGGAGTGCAGGAG (sugars k3 d10 k3, PS)",-7%,–,–
"AGCATAAAAGGTTCCT (sugars k3 d10 k3, PS)",45%,–,–
"GGCATACAGTGTGATT (sugars k3 d10 k3, PS)",25%,–,–
"AATGCACCTGGGAGAC (sugars k3 d10 k3, PS)",62%,–,–
"AAGTGTCTTCCACAAG (sugars k3 d10 k3, PS)",54%,–,–
"AGCCTAGAGGTGCCTT (sugars k3 d10 k3, PS)",41%,–,–
"GAACGGAAGTTTACAC (sugars k3 d10 k3, PS)",67%,–,–
"TTTGAAGCAACACGGG (sugars k3 d10 k3, PS)",47%,–,–
"CGAGGTTGCCGAGATA (sugars k3 d10 k3, PS)",–,66% and 60%,–
"GGACTAAGGACAGCTG (sugars k3 d10 k3, PS)",–,13%,–
"CCCACACCAGCCCGGG (sugars k3 d10 k3, PS)",-6%,–,–

Sequence,"target mRNA inhibition (SK-MEL-28, 4 µM)","target mRNA inhibition (MM.1R, 1 µM)",other results
"TGACATAAAGGACCCC (sugars k3 d10 k3, PS)",48%,–,–
"TGCTAAAGGAGTGCAG (sugars k3 d10 k3, PS)",–,-17%,–
"AGAGCCCCTACCTTTT (sugars k3 d10 k3, PS)",–,-7%,–
"GAAAGAATGGCGCATA (sugars k3 d10 k3, PS)",49%,–,–
"CTAATTCCATAGAGCC (sugars k3 d10 k3, PS)",80%,47%,"target mRNA inhibition (MM.1R, 0.0625 µM): 2%; target mRNA inhibition (MM.1R, 0.074 µM): -13%; target mRNA inhibition (MM.1R, 0.222 µM): -6%; target mRNA inhibition (MM.1R, 0.25 µM): 8%; target mRNA inhibition (MM.1R, 0.666 µM): 4%; target mRNA inhibition (MM.1R, 2 µM): 20%; target mRNA inhibition (MM.1R, 4 µM): 88%"
"ATGAGGAAGCCGTTCC (sugars k3 d10 k3, PS)",58%,–,–
"GAAGTACGAGCACATG (sugars k3 d10 k3, PS)",–,18%,–
"CAGGAGCGCGGAGGGC (sugars k3 d10 k3, PS)",11%,–,–
"AGCCCCTCAGGAAATG (sugars k3 d10 k3, PS)",24%,–,–
"AGTTGTCTGGCTAGCA (sugars k3 d10 k3, PS)",80%,–,–
"TGCCTTGTGACATAAA (sugars k3 d10 k3, PS)",45%,–,–
"GCACATCAATGTTTTA (sugars k2 d9 e3 k2, PS)",–,20%,–
"GGAAATACGACAACTT (sugars k3 d10 k3, PS)",63%,–,–
"TTATATACTGGTTGGT (sugars kkdddddddddkekek, PS)",–,50%,–
"AGCAAGTGTCTAAAGT (sugars k3 d10 k3, PS)",62%,22%,"target mRNA inhibition (MM.1R, 0.0625 µM): -1%; target mRNA inhibition (MM.1R, 0.074 µM): -8%; target mRNA inhibition (MM.1R, 0.222 µM): 6%; target mRNA inhibition (MM.1R, 0.25 µM): 12%; target mRNA inhibition (MM.1R, 0.666 µM): 11%; target mRNA inhibition (MM.1R, 2 µM): 33%; target mRNA inhibition (MM.1R, 4 µM): 51%"
"GTTAAGTCCCATCTGT (sugars k3 d10 k3, PS)",40%,–,–
"CTGCAGAACAGACGCG (sugars k3 d10 k3, PS)",11%,–,–
"AGTTCATGTAAAGTCT (sugars k2 d9 e3 k2, PS)",–,41% and 30%,–
"AAATAAGATCCCACGA (sugars k3 d10 k3, PS)",–,-7%,–
"GACAGTGACTTGCATC (sugars kkdddddddddkdkdk, PS)",–,-7%,–
"CCCAATACATATCCAT (sugars k3 d10 k3, PS)",74%,–,–
"GGTTGGCTGGTCTTTG (sugars kkdddddddddkekek, PS)",–,67% and 63%,"target mRNA inhibition (MM.1R, 0.0625 µM): 34%; target mRNA inhibition (MM.1R, 0.25 µM): 44%; target mRNA inhibition (MM.1R, 4 µM): 82%"
"CTGCTTGAGGTTTTCC (sugars k2 d9 e3 k2, PS)",–,31%,–
"TGCTTGAGGTTTTCCT (sugars k2 d9 e3 k2, PS)",–,32%,–
"AACTAGTCGACAGCTA (sugars k3 d10 k3, PS)",–,-7%,–

Sequence,"target mRNA inhibition (SK-MEL-28, 4 µM)","target mRNA inhibition (MM.1R, 1 µM)",other results
"ACTAAATTCTAGTTTG (sugars k3 d10 k3, PS)",0%,–,–
"TCCACCCTCCGTCTCA (sugars k3 d10 k3, PS)",–,-9%,–
"GGCAACAGTTCAAGTA (sugars k3 d10 k3, PS)",57%,–,–
"AGCGAGTCAGACAGTG (sugars k3 d10 k3, PS)",16%,–,–
"TCAGTTTGTGAAGCAT (sugars kddddddddddkekek, PS)",–,21%,–
"AAGCATTTTATCATCC (sugars kdddddddddkekeke, PS)",–,6%,–
"CGAGAACGCACGGACG (sugars k3 d10 k3, PS)",–,-11%,–
"GCACAGCCCTTGGTTA (sugars k3 d10 k3, PS)",–,3%,–
"AAAGGGTAAGCACTGA (sugars k3 d10 k3, PS)",–,19%,–
"ATGCATAACACGGTGT (sugars k3 d10 k3, PS)",45%,–,–
"CAGCCGAAGCATTTTA (sugars k3 d10 k3, PS)",–,0%,–
"CAAGATCGAGCGGTGA (sugars k3 d10 k3, PS)",38%,–,–
"GAATAAACACCCCTTC (sugars k3 d10 k3, PS)",44%,–,–
"TTCCAACAGGCGGACA (sugars k3 d10 k3, PS)",43%,–,–
"GTAGTATGAGAAACGG (sugars k2 d9 e3 k2, PS)",–,51%,–
"TTACTAACTGGCTTCC (sugars k3 d10 k3, PS)",49%,–,–
"TTGGTTGGCTGGTCTT (sugars kkdddddddddkdkdk, PS)",–,55%,–
"ACGGGAATTTCCATTG (sugars k3 d10 k3, PS)",67%,–,"target mRNA inhibition (SK-MEL-28, 0.185 µM): 11% and 5% and 1%; target mRNA inhibition (SK-MEL-28, 5 µM): 57% and 61% and 82%; target mRNA inhibition (SK-MEL-28, 15 µM): 83% and 79% and 94%"
"CCACGAAGGGCAGTGC (sugars k3 d10 k3, PS)",–,0%,–
"CCACGGACGGAGGCGG (sugars k3 d10 k3, PS)",–,-6%,–
"GTTTTAAGAGGCGACT (sugars k3 d10 k3, PS)",33%,–,–
"TACTGCTTGAGGTTTT (sugars kkkdddddddddkeke, PS)",–,7%,–
